What is called IC50 is the concentration that inhibits the measured activity by half. A higher IC50 goes with lower potency.

Consider nine molecules from patent US20050014816A1, “Thiophene amino acid derivatives, process for preparing them and pharmaceutical compositions containing them” (Pfizer Inc, priority 2003, published 2005).

Molecules are shown by their SMILES.

Test [1] deals with MMP-12 (Homo sapiens, UniProt P39900). Put plainly: in vitro inhibitory activity on MMP-12 (proteolysis of FP-1 peptide substrate). It counts as biochemical. The note with it: FP-1 substrate 10 μM, 20 minutes at room temperature. The procedure: in vitro Evaluation of the Inhibitory Activity of the Compounds of the Invention on MMP-12:
The inhibitory activity of the compounds of formula (I) on metalloprotease-12 is evaluated by testing the capacity of the compounds of the invention to inhibit the proteolysis of a peptide that is an MMP-12 substrate.
The substrate peptide used (fluorigenic peptide-1: FP-1) in the test has the following sequence: Mca-Pro-Leu-Gly-Leu-Dap(Dnp)-Ala-Arg-NH2.
The inhibitory activity of a compound of formula (I) is expressed as the IC50 value, which represents the concentration of inhibitor for which a 50% inhibition of the metalloprotease is observed.
The reaction starts with the sequential addition of 41 μl of FP-1 substrate (final concentration of 10 μM) to a buffer solution of 50 mM of Tris-HCl and 10 mM of CaCl2, and containing 5 mM of hydroxamic acid and 5 μl of the enzyme diluted in a 0.005% Brij-35 buffer solution. The microplates are incubated for 20 minutes at room temperature. The compounds of the invention are tested at concentrations ranging from 0.3 to 30 μM. The measurement of the amount of proteolysis of the peptide substrate is monitored by means of a measurement of absorbance at 405 nm using a microplate spectrophotometer, at room temperature. The IC50 values are calculated from curves in which the percentage of the catalytic activity relative to the control is represented on the […] and the inhibitor concentration is represented on the y-axis.

In test [2] the target is MMP-13 (Homo sapiens, UniProt P45452). The experiment in a line: MMP-12 inhibition test adapted to MMP-13. It counts as biochemical. The note with it: test for MMP-12 adapted to MMP-13.
Description: The reaction starts with the sequential addition of 41 μl of FP-1 substrate (final concentration of 10 μM) to a buffer solution of 50 mM of Tris-HCl and 10 mM of CaCl2, and containing 5 mM of hydroxamic acid and 5 μl of the enzyme diluted in a 0.005% Brij-35 buffer solution. The microplates are incubated for 20 minutes at room temperature. The compounds of the invention are tested at concentrations ranging from 0.3 to 30 μM. The measurement of the amount of proteolysis of the peptide substrate is monitored by means of a measurement of absorbance at 405 nm using a microplate spectrophotometer, at room temperature. The IC50 values are calculated from curves in which the percentage of the catalytic activity relative to the control is represented on the x-axis and the inhibitor concentration is represented on the y-axis.
The test described above for the inhibition of MMP-12 is adapted and used to determine the capacity of the compounds of formula (I) to inhibit the metalloproteases MMP-1, MMP-2, MMP-3, MMP-7, MMP-9, MMP-13 and MMP-14.

Sequence of MMP-12 (P39900 106-470): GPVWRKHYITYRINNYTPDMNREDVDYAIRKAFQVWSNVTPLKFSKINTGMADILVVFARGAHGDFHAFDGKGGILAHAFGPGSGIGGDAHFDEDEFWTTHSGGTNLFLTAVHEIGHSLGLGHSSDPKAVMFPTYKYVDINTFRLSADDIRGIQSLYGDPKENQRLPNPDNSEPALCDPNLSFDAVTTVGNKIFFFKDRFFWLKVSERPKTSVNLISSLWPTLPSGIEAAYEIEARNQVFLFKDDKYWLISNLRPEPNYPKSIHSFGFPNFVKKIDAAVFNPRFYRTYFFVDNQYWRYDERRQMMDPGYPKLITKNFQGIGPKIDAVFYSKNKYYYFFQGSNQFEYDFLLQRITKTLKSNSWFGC

Regarding `O=C(O)CC(NC(=O)c1cc(-c2ccc(OC(F)(F)F)cc2)cs1)c1ccccc1` (racemic) [Example 6, {1[(4-Trifluoromethoxyphenyl)thien-2-yl]carboxamido}(phenyl)-propanoic acid], the values for the IC50 in test [1] and in test [2] were 0.42 µM and 3.6 µM, respectively.

In the case of `O=C(N[C@H](C(=O)O)c1ccccc1)c1cc(-c2ccc(OC(F)(F)F)cc2)cs1` [Example 2], the figures for the IC50 in test [1] and in test [2] were 0.38 µM and 4.5 µM, respectively.

As for `O=C(N[C@@H](C(=O)O)c1ccccc1)c1cc(-c2ccc(OC(F)(F)F)cc2)cs1` [Example 4, (2R)-{[4-(4-Trifluoromethoxyphenyl)thien-2-yl]carboxamido}-(phenyl)acetic acid], the half-inhibitory concentration (IC50) amounted to 0.47 µM in test [1] and 5.6 µM in test [2].

For `O=C(N[C@H](Cc1ccccc1)C(=O)O)c1cc(-c2ccc(OC(F)(F)F)cc2)cs1` [Example 8, (2R)-{[4-(4-Trifluoromethoxyphenyl)thien-2-yl]carboxamido}(phenyl)-propanoic acid], the IC50 in test [1] is 0.18 µM; in test [2] it was 2.2 µM.

Regarding `NC(=O)C[C@@H](NC(=O)c1cc(-c2ccc(OC(F)(F)F)cc2)cs1)c1ccccc1` [Example 9], the IC50 was 0.077 µM in test [1] and 0.96 µM in test [2].

For `O=C(O)C[C@H](Cc1ccccc1)NC(=O)c1cc(-c2ccc(OC(F)(F)F)cc2)cs1` [Example 12, (3S)-3-{[4-(4-Trifluoromethoxyphenyl)thien-2-yl]carboxamido)-4-phenylbutanoic acid], the values for the IC50 in test [1] and in test [2] were 0.53 µM and 8.3 µM, respectively.

In the case of `O=C(N[C@H](C(=O)O)c1ccccc1)c1cc(-c2ccc(C3CCCCC3)cc2)cs1` [Example 16, (2S)-{[4-(4-cyclohexylphenyl)thien-2-yl]carboxamido}(phenyl)acetic acid], the IC50 in test [1] came to 0.54 µM; in test [2], 6.5 µM.

For `CC(=O)c1ccc(-c2ccc(-c3csc(C(=O)N[C@H](C(=O)O)c4ccccc4)c3)cc2)cc1` [Example 18, (2S)4-[({4-[4-(4-Acetylphenyl)phenyl]thien-2-yl}carbonyl)amino]-(phenyl)acetic acid], the IC50 was 0.04 µM in test [1] and 0.12 µM in test [2].

As for `CC(=O)c1ccc(-c2ccc(-c3csc(C(=O)N[C@H](CC(=O)O)c4ccccc4)c3)cc2)cc1` [Example 20], the IC50 was 0.028 µM in test [1] and 0.069 µM in test [2].
